From patent US20130005733A1, “COMBINATION ANTI-CANCER THERAPY” (OSI Pharmaceuticals, LLC, priority 2010, published 2013)

Columns and labels:
[1] = system: Igrov1; test: Cell Titer Glo proliferation assay, ovarian cell line panel; format: cell-based, Human; conditions: Igrov1, single agent, cell viability at 72 hours
Experimental: Cell lines: Human cancer cell lines were purchased from the American Type Culture Collection (ATCC). The cell lines Ovcar-3, MDAH2774, Caov3, lgrov-1, and MDA-MB-231 were grown in media as prescribed by the ATCC, containing 10% FCS. HNSCC 1483, HNSCC 1386, HNSCC 1186 were a gift from Memorial Sloan Kettering and were cultured in 1:1 DMEM: Hams F12 with 10% FCS. Ovcar-4, Ovcar-5, and Ovcar-8 were obtained from the NCI and were grown in RPMI with 10% FCS. Measurement of proliferation: Inhibition of proliferation was measured using the Cell Titer Glo Assay (Promega Corporation, Madison, WI). Cell lines were seeded at a density of 3000 cells per well in a 96-well plate. 24 hours after plating cells were dosed with varying concentrations of drug, either as a single agent or in combination. […] Inhibition of proliferation, relative to vehicle-treated controls was expressed as a fraction of 1 and graphed using PRISM® software (Graphpad Software, San Diego, Calif.).

[2] = system: MDAH2774; test: as above; format: cell-based, Human; conditions: MDAH2774 (KRAS mutant), single agent, cell viability at 72 hours
Experimental: (§1) Cell lines: Human cancer cell lines were purchased from the American Type Culture Collection (ATCC). The cell lines Ovcar-3, MDAH2774, Caov3, lgrov-1, and MDA-MB-231 were grown in media as prescribed by the ATCC, containing 10% FCS. HNSCC 1483, HNSCC 1386, HNSCC 1186 were a gift from Memorial Sloan Kettering and were cultured in 1:1 DMEM: Hams F12 with 10% FCS. Ovcar-4, Ovcar-5, and Ovcar-8 were obtained from the NCI and were grown in RPMI with 10% FCS. Measurement of proliferation: Inhibition of proliferation was measured using the Cell Titer Glo Assay (Promega Corporation, Madison, WI). Cell lines were seeded at a density of 3000 cells per well in a 96-well plate. 24 hours after plating cells were dosed with varying concentrations of drug, either as a single agent or in combination. […] Inhibition of proliferation, relative to vehicle-treated controls was expressed as a fraction of 1 and graphed using PRISM® software (Graphpad Software, San Diego, Calif.). Analysis of Synergy: The Bliss additivism model was used to classify the effect of combining OSI-027 and OSI-906 as additive, synergistic or antagonistic. A theoretical curve was calculated for combined inhibition using the equation: Ebliss=EA+EB−EA*EB, where EA and EB are the fractional inhibitions obtained by drug A alone and drug B alone at specific concentrations. Here, Ebliss is the fractional inhibition that would be expected if the combination of the two drugs was exactly additive. If the experimentally measured fractional inhibition was less than Ebliss the combination was said to be synergistic. If the experimentally measured fractional inhibition was greater than Ebliss the combination was said to be antagonistic. For dose response curves, the bliss additivity was calculated for varying doses of drug A when combined with a constant dose of drug B. This allowed an assessment as to whether drug B affected the potency of drug A or shifted its intrinsic activity. All plots were generated using Graphpad Prism software.

[3] = system: Ovcar-5; test: as above; format: cell-based, Human; conditions: Ovcar-5 (KRAS mutant), single agent, cell viability at 72 hours
Experimental: as §1

[4] = system: Ovcar3; test: as above; format: cell-based, Human; conditions: Ovcar3, single agent, cell viability at 72 hours
Experimental: as §1

[5] = system: Ovcar-5 cells; test: Caspase 3/7 Glo apoptosis assay; format: cell-based, Human; conditions: 48 hrs after treatment, OSI-027 varying doses alone or with 5 uM OSI-906
Experimental: Measurement of apoptosis: […] Cell lines were seeded at a density of 3000 cells per well in a 96-well plate. 24 hours after plating cells were dosed with varying concentrations of drug, either as a single agent or in combination. […] The caspase 3/7 activity was normalized to cell number per well, using a parallel plate treated with Cell Titer Glo (Promega Corporation, Madison, WI). Signal for each well was normalized using the following formula: Caspase 3/7 Glo luminescence units/Cell Titer Glo fraction of DMSO control. All graphs were generated using PRISM® software (Graphpad Software, San Diego, Calif.). […] A theoretical curve was calculated for combined inhibition using the equation: Ebliss=EA+EB−EA*EB, where EA and EB are the fractional inhibitions obtained by drug A alone and drug B alone at specific concentrations. […] If the experimentally measured fractional inhibition was less than Ebliss the combination was said to be synergistic. If the experimentally measured fractional inhibition was greater than Ebliss the combination was said to be antagonistic. For dose response curves, the bliss additivity was calculated for varying doses of drug A when combined with a constant dose of drug B. This allowed an assessment as to whether drug B affected the potency of drug A or shifted its intrinsic activity. […]

[6] = system: H460 NSCLC xenograft; test: Tumor growth inhibition in vivo, xenograft; conditions: single agent
Experimental: Evaluation of tumor growth inhibition in vivo: Evaluation of tumor growth inhibition in vivo was conducted at OSI facilities with the approval of the Institutional Animal Care and Use Committee (IACUC) in an American Association for Accreditation of Laboratory Animal Care (AAALAC) accredited vivarium and in accordance with the Institute of Laboratory Animal Research (Guide for the Care and Use of Laboratory Animals, NIH, Bethesda, Md., USA). For this study, female athymic nude nu/nu CD-1 mice (6-8 wks, 20-28 g, Charles River Laboratories, Wilmington, Mass., USA) were allowed to acclimate for a minimum of one week prior to initiation of the study. To evaluate tumor growth inhibition, cells were harvested from cell culture flasks during exponential cell growth, washed twice with sterile PBS, counted and resuspended in PBS to a suitable concentration before subcutaneous implantation on the right flank of nu/nu CD-1 mice. Tumors were established to 200±50 mm^3 in size before randomization into treatment groups of 8 mice each. […]
where Tt=median tumor volume of treated at time t; T0=median tumor volume of treated at time 0; Ct=median tumor volume of control at time t; and C0=median tumor volume of control at time 0. The average TGI over the dosing period was then calculated and reported. […]

[7] = system: IGF-1R phosphorylation in H460 lung carcinoma cells; test: Phospho-RTK antibody array (Proteome Profiler); format: cell-based, Human; conditions: 3 uM, relative to DMSO
Text: (§2) Measurement of phosphorylated receptor tyrosine kinases: A commercially available membrane-based antibody array (Proteome Profiler Array, R&D Systems, Minneapolis, Minn.) was used to simultaneously co-immunoprecipitate 42 different receptor tyrosine kinases (RTKs) in duplicate and measure specific phospho-epitopes on each. The phospho-epitopes were detected by chemiluminescence, quantitated based on pixel density for each pair of spots and expressed relative to vehicle-treated controls. Pixel density was determined using AlphaEaseFC software (Alpha Innotech, San Leandro, Calif.).

[8] = system: IGF-1R phosphorylation in MDAH2774 ovarian carcinoma cells; test: Phospho-RTK antibody array (Proteome Profiler); format: cell-based, Human; conditions: MDAH2774 (KRAS mutant); 3 uM each agent; 2 hour treatment
Text: as §2

[9] = system: IR phosphorylation in MDAH2774 ovarian carcinoma cells; test: Phospho-RTK antibody array (Proteome Profiler); format: cell-based, Human; conditions: MDAH2774 (KRAS mutant); 3 uM each agent; 2 hour treatment
Text: as §2

[10] = system: IR phosphorylation in Ovcar-3 ovarian carcinoma cells; test: Phospho-RTK antibody array (Proteome Profiler); format: cell-based, Human; conditions: Ovcar-3 (KRAS wt); 3 uM each agent; relative to DMSO
Text: as §2

[11] = system: pPRAS40 (T246) in MDAH2774; test: Western blot of phospho-PRAS40; format: cell-based, Human; conditions: 300 nM each agent, 2 hours
Experimental: (§3) Cell extracts were prepared by detergent lysis (50 mM Tris-HCl, pH 8.0, 150 mM NaCl, 1% NP-40, 0.5% sodium deoxycholate, 0.1% SDS, containing protease inhibitor (P8340, Sigma, St. Louis, Mo.) and phosphatase inhibitor (P5726, Sigma, St. Louis, Mo.) cocktails. The soluble protein concentration was determined by micro-BSA assay (Pierce, Rockford, Ill.). Pixel density was determined using AlphaEaseFC software (Alpha Innotech, San Leandro, Calif.). Protein immunodetection was performed by electrophoretic transfer of SDS-PAGE separated proteins to nitrocellulose, incubation with antibody, and chemiluminescent second step detection (PicoWest; Pierce, Rockford, Ill.). The antibodies included: 4E-BP1, p-4E-BP1(T37/46), PRAS40, and pPRAS40 ([…]). Antibodies were obtained from Cell Signaling Technology, Inc. (Danvers, Mass.). […] The media was removed, cells were washed two times with PBS, and cells were lysed as previously described.

[12] = system: p-4E-BP1(T37/46); test: Western blot of phospho-4E-BP1; format: cell-based, Human; conditions: 300 nM each agent; 2 hours
Experimental: as §3

Compound | sensitivity of cell line (inhibition of proliferation) [1] | sensitivity of cell line (inhibition of proliferation) [2] | sensitivity of cell line (inhibition of proliferation) [3] | sensitivity of cell line (inhibition of proliferation) [4] | induction of apoptosis (caspase 3/7 activity) [5] | tumor growth inhibition (TGI) ([6]; OSI-027 50 mg/kg oral daily for 14 days) [%] | phosphorylation of IGF-1R [7] | phosphorylation of IGF-1R [8] | phosphorylation of IR [9] | phosphorylation of IR [10] | inhibition of phosphor-PRAS40 [11] | phosphorylation of 4E-BP1 [12] | tumor growth inhibition (TGI) ([6]; OSI-906 60 mg/kg once-daily for 14 days) [%]
COc1cccc2cc(-c3nc([C@H]4CC[C@H](C(=O)O)CC4)n4ncnc(N)c34)[nH]c12 [OSI-027, trans-4-[4-amino-5-(7-methoxy-1H-indol-2-yl)imidazo[5,1-f][1,2,4]triazin-7-yl]cyclohexanecarboxylic acid] | most sensitive | relatively insensitive | relatively insensitive | most sensitive | did not significantly induce apoptosis | 66 | hyperphosphorylation of IGF-1R | increased | increased | hyperphosphorylated | partial inhibition | reduced | 
C[C@]1(O)C[C@@H](c2nc(-c3ccc4ccc(-c5ccccc5)nc4c3)c3c(N)nccn32)C1 [OSI-906, cis-3-[8-amino-1-(2-phenylquinolin-7-yl)-imidazo[1,5-a]pyrazin-3-yl]-1-methylcyclobutanol] | among the least sensitive | most sensitive | most sensitive | among the least sensitive |  |  |  | reduced | reduced | fully attenuates phosphor-IR, below the basal level | inhibits phosphor-PRAS40 to a greater degree | No significant decrease | 69
Nc1nccn2c1c(-c1cc3cccc(Cl)c3[nH]1)nc2[C@H]1CC[C@H](C(=O)O)CC1 [OXA-01] |  |  |  |  |  |  | increases p-IGF-1R to a greater degree than erlotinib |  |  |  |  |  | 
C#Cc1cccc(Nc2ncnc3cc(OCCOC)c(OCCOC)cc23)c1 [erlotinib, reference compound] |  |  |  |  |  |  | hyperphosphorylation of IGF-1R |  |  |  |  |  | 
